ChEMBL document CHEMBL1147274, “Isoflavans and a Stilbene from Wood of the Decay-Resistant Tropical Tree Diphysa robinioides” (1986)
≈ marks a conversion by molar mass, not a printed value. Calls of active or inactive are those of the source. The rule behind the calls is not given here.

What was measured:
[1] = test system: Escherichia coli; experiment: Antibacterial activity against Escherichia coli ATCC 9637; format: functional
[2] = test system: Klebsiella pneumoniae; experiment: Antibacterial activity against Klebsiella pneumoniae ATCC 10031; format: functional
[3] = test system: Staphylococcus aureus; experiment: Antibacterial activity against Staphylococcus aureus ATCC 13709; format: functional
[4] = test system: Salmonella enterica subsp. enterica serovar Gallinarum; experiment: Antibacterial activity against Salmonella gallinarum ATCC 9184; format: functional
[5] = test system: Mycolicibacterium smegmatis; experiment: Antibacterial activity against Mycobacterium smegmatis ATCC 607; format: functional
[6] = test system: Pseudomonas aeruginosa; experiment: Antibacterial activity against Pseudomonas aeruginosa ATCC 27853; format: functional, organism-based
[7] = test system: Candida albicans; experiment: […] activity against Candida albicans ATCC 10231; format: functional

Row | MIC [1] | MIC [2] | MIC [3] [µg/mL] | MIC [4] | MIC [5] | MIC [6] | MIC [7] | SMILES
1 | inactive | inactive | 6.25 (≈ 18.4 µM) | inactive | inactive | inactive | 12.5 µg/mL (≈ 36.7 µM) | COc1ccc([C@H]2COc3c(ccc(O)c3CC=C(C)C)C2)c(O)c1
2 | inactive | inactive | 12.5 (≈ 23 µM) | inactive | inactive | inactive | inactive | O=C1c2c(O)cc(O)cc2OC(c2ccc(O)cc2)C1C1C(=O)c2c(O)cc(O)cc2OC1c1ccc(O)cc1 (stereo unspecified) [CHAMAEJASMIN]
3 | 5 µg/mL | 2.5 µg/mL | 5 | 50 µg/mL | 1.25 µg/mL | inactive | inactive | CN[C@@H]1[C@H](O[C@H]2[C@H](O[C@H]3[C@H](O)[C@@H](O)[C@H](N=C(N)N)[C@@H](O)[C@@H]3N=C(N)N)O[C@@H](C)[C@]2(O)C=O)O[C@@H](CO)[C@H](O)[C@H]1O.CN[C@@H]1[C@H](O[C@H]2[C@H](O[C@H]3[C@H](O)[C@@H](O)[C@H](N=C(N)N)[C@@H](O)[C@@H]3N=C(N)N)O[C@@H](C)[C@]2(O)C=O)O[C@@H](CO)[C@H](O)[C@H]1O.O=S(=O)(O)O.O=S(=O)(O)O.O=S(=O)(O)O [STREPTOMYCIN SULFATE]
